The results in this text go back to the METLIN SMRT retention time set (Domingo-Almenara et al. 2019).

The nature of this data set: gradient 5% acetonitrile 3 min, to 50% in 2 min, to 85% in 15 min, held 3 min, 100 µL/min. Conditions: column: Zorbax Extend-C18 2.1 x 50 mm; eluents: water / acetonitrile, 0.1% formic acid. In short, it runs like this: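 Retention times of pure standards were taken from adduct peaks that were selected by computer and manually inspected. Over 3 months, mixtures of ~100 molecules were run by HPLC–quadrupole time-of-flight mass spectrometry in positive and negative ionization mode. The Zorbax Extend-C18 column (2.1 × 50 mm, 1.8 μm) ran at 100 μL/min in water and acetonitrile, each containing 0.1% formic acid, with 40 μL dead volume and 900 μL dwell volume.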
Take `CCN1C(=O)CCc2cc(NS(=O)(=O)c3ccc(C)c(F)c3)ccc21`: the RP-LC retention time is 800 s.

Compound `COCCc1noc(-c2cnc3nc(C)ccc3c2Nc2ccc(OC)cc2)n1` registered an RP-LC retention time of 681 s.

The compound `Cc1ccc(CNC(=O)N2CCC3(CC2)NC(=O)c2ccc(F)cc2N3C)cc1` yielded an RP-LC retention time of 761 s.

Take `COc1cc(-n2c(C)nc3cc(C(=O)NCC4CCCO4)ccc32)cc(OC)c1OC` (stereo not drawn): the RP-LC retention time is 631 s.

On to `CCc1ccccc1NC(=O)Cn1c(N)nc(C)cc1=O`, for which the RP-LC retention time was 584 s.

As to `COc1ccc(OC)c(-c2ccc(=O)n(CC(=O)Nc3ccc(-n4cnnn4)cc3)n2)c1`, the RP-LC retention time came out at 689 s.

Compound `O=C(NCc1ccc(-c2noc(-c3cc(F)cc(F)c3)n2)s1)C1CC1` yielded an RP-LC retention time of 952 s.

`CCc1nc2cc(-c3noc(COc4cccc(Cl)c4)n3)ccc2o1` showed an RP-LC retention time of 1240 s.

Compound `CCCNc1cc(N2CCCC(CCC(=O)N3CCN(CC(C)C)CC3)C2)ncn1` (stereo not drawn) registered an RP-LC retention time of 552 s.

In the case of `COc1ccc(-c2csc3c(=O)n(Cc4ccccc4)cnc23)cc1OC`, the RP-LC retention time was 948 s.

`Cc1nc(NC(=O)c2ccc(OCc3nc(C4CC4)cs3)cc2)sc1C` had an RP-LC retention time of 969 s.

The compound `CC1=C(C(=O)Nc2cccc(Cl)c2C)C2(CCCCCC2)OC1=O` gave an RP-LC retention time of 1090 s.

Regarding `CCOc1ccc(-n2nnc(-c3nc(-c4cccc(OC)c4)cs3)c2N)cc1`, the RP-LC retention time is 1130 s.

On to `CC1CCN(C(=O)c2ccc3ncnc(N4CCCC4)c3c2)CC1`, for which the RP-LC retention time stood at 619 s.

On to `O=C(Nc1cccc(F)c1)N1CCN(c2cc(-c3ccncc3)[nH]n2)CC1`, for which the RP-LC retention time stood at 606 s.

Compound `CCCn1c(=O)c(N2CCC(NC(=O)Nc3ccc(Cl)cc3)CC2)nc2ccccc21` gave an RP-LC retention time of 1090 s.

The compound `Cc1nc2cc(N3CCCC(C(=O)NCc4ccc(N(C)C)cc4)C3)cnc2nc1C` (stereo not drawn) showed an RP-LC retention time of 586 s.

In the case of `Cc1ccnn1-c1ccc(SCC(=O)Nc2cc(F)ccc2F)nn1`, the RP-LC retention time was determined as 934 s.

`CN(C)CCNC(=O)Cc1cccn1-c1ccc(Cl)cc1` gave an RP-LC retention time of 618 s.

Turning to `O=C(NCC(c1ccsc1)N1CCc2ccccc2C1)C(=O)Nc1ccon1` (stereo not drawn), the RP-LC retention time was determined as 572 s.

In turn, `O=C(Nc1ccc(-c2nc(-c3ccccc3)co2)cc1)c1cccs1` returned an RP-LC retention time of 1100 s.

`CN1C(=O)c2cccn2CC1C(=O)Nc1ccccc1` (stereo not drawn) displayed an RP-LC retention time of 681 s.

Regarding `CN(C)C(=O)c1ccc2oc(CN3CCN(C(=O)NCc4ccco4)CC3)nc2c1`, the RP-LC retention time was 582 s.

As for `CCC1Oc2ccc(S(=O)(=O)N3CCC(C(=O)N4CCc5ccccc54)CC3)cc2NC1=O` (stereo not drawn), the RP-LC retention time was 917 s.

Compound `COc1ccc(CNC(=O)C2CCCN2S(=O)(=O)c2cc3c(cc2C)NC(=O)CO3)cc1` (stereo not drawn) displayed an RP-LC retention time of 728 s.

For `Cc1cc2n(n1)CCC(=O)N2CCCC(=O)NCCN(C)C1CCCCC1`, the RP-LC retention time was 576 s.

For the compound `Cc1nc(-c2noc(-c3ccccc3)n2)cn1CC(=O)NCc1ccc2c(c1)OCO2`, the RP-LC retention time came to 800 s.

`Cc1ccccc1-c1noc(Cn2c(=O)n(-c3ccccc3C)c(=O)c3sccc32)n1`: the RP-LC retention time amounted to 1050 s.

The compound `CN1CCCN(C(=O)C2CC(=O)N(c3ccc4c(c3)CCN4C(=O)C3CC3)C2)CC1` (stereo not drawn) registered an RP-LC retention time of 564 s.

In turn, `Cc1ccc(-c2ccc(N3CCCC(C(=O)NCc4ccc5c(c4)OCO5)C3)nn2)cc1` (stereo not drawn) gave an RP-LC retention time of 732 s.

Turning to `Cc1ccc(NC(=O)c2cc(C)n3nc(C)cc3n2)c(C)c1`, the RP-LC retention time was determined as 1140 s.

On to `COCCN1C(=O)[C@H]2CN(Cc3cccc(C#N)c3)C[C@H]2C1=O`, for which the RP-LC retention time amounted to 607 s.

Compound `CCn1nccc1C(=O)N1CCCC1c1ccc(Cl)cc1` (stereo not drawn) displayed an RP-LC retention time of 850 s.
